According to ChEMBL document CHEMBL1201862, “PubChem BioAssay data set” (2004):
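1) Cells in 96-well plates. 2) Compound, 48 h, 5 concentrations. 3) Linear interpolation between surrounding doses. 4) Unreached endpoint = highest concentration. GI50: concentration for 50% inhibition of growth.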 Active and inactive are the calls of the source. Cut-off read from the data, not from the text of the source: active = GI50 up to about 1.1 µM and inactive = higher.

Key:
Test in all cases: NCI tumour cell line growth inhibition, 48 h
SK-MEL-5 = system: SK-MEL-5
NCI-H522 = system: NCI-H522
M14 = system: M14
KM12 = system: KM12
K562 = system: K562
COLO 205 = system: COLO 205
HOP-62 = system: HOP-62
RPMI-8226 = system: RPMI-8226
TK-10 = system: TK-10
SK-MEL-28 = system: SK-MEL-28
HCT-15 = system: HCT-15
CAKI-1 = system: CAKI-1
SN12C = system: SN12C
EKVX = system: EKVX
UACC-257 = system: UACC-257
SF-268 = system: SF-268
NCI-H226 = system: NCI-H226
RXF 393 = system: RXF 393

In the case of `COc1ccc(-c2cc(O)c3cc4c(cc3n2)OCO4)c(OC)c1`, the GI50 (SK-MEL-5) is reported as 26.5 µM (inactive), the GI50 (NCI-H522) is reported as 46.9 µM (inactive) and the GI50 (M14) is reported as 33.5 µM (inactive). For the same compound, the GI50 (KM12) was 41.6 µM (inactive), the GI50 (K562) was 32 µM (inactive) and the GI50 (COLO 205) was 46.2 µM (inactive). For the same compound, the GI50 (HOP-62) was 73.1 µM (inactive), the GI50 (RPMI-8226) was 28.3 µM (inactive) and the GI50 (TK-10) was > 100 µM (inactive). The GI50 (SK-MEL-28) was 32.9 µM (inactive), the GI50 (HCT-15) was 38.9 µM and the GI50 (CAKI-1) was > 100 µM (inactive). For the same compound, the GI50 (SN12C) was 59.6 µM (inactive) and the GI50 (EKVX) was 82.4 µM (inactive).

With `CC1(O)CC2C(CC1SCCO)C2(C)C` (stereo not given) the GI50 (SK-MEL-5) was > 100 µM (inactive), the GI50 (M14) was > 100 µM (inactive) and the GI50 (UACC-257) was > 100 µM (inactive). The GI50 (KM12) was > 100 µM (inactive), the GI50 (K562) was > 100 µM (inactive) and the GI50 (SF-268) was > 100 µM (inactive). The GI50 (COLO 205) was > 100 µM (inactive), the GI50 (RPMI-8226) was > 100 µM (inactive) and the GI50 (TK-10) was > 100 µM (inactive). The GI50 (SK-MEL-28) was > 100 µM (inactive), the GI50 (HCT-15) was greater than 100 µM and the GI50 (SN12C) was > 100 µM (inactive). The GI50 (EKVX) was > 100 µM (inactive).

In the case of `COc1ccccc1NC(=O)C1=C(C)NC(C)=C(C(=O)Nc2ccccc2OC)C1c1ccccc1F`, the GI50 (SK-MEL-5) is reported as 41.6 µM (inactive), the GI50 (NCI-H226) is reported as > 100 µM (inactive) and the GI50 (M14) is reported as > 100 µM (inactive). For the same compound, the GI50 (UACC-257) was > 100 µM (inactive), the GI50 (KM12) was 66.7 µM (inactive) and the GI50 (K562) was 36.2 µM (inactive). The GI50 (SF-268) was > 100 µM (inactive), the GI50 (COLO 205) was > 100 µM (inactive) and the GI50 (HOP-62) was > 100 µM (inactive). For the same compound, the GI50 (RPMI-8226) was 62.1 µM (inactive), the GI50 (TK-10) was > 100 µM (inactive) and the GI50 (SK-MEL-28) was > 100 µM (inactive). For the same compound, the GI50 (HCT-15) was 98.6 µM, the GI50 (CAKI-1) was > 100 µM (inactive) and the GI50 (SN12C) was > 100 µM (inactive). The GI50 (EKVX) was 50.2 µM (inactive).

For `O=C(CN1CCCCC1)N1CCc2c([nH]c3ccccc23)C1c1cccnc1` (stereo not given), the GI50 (SK-MEL-5) was > 100 µM (inactive), the GI50 (NCI-H522) was > 100 µM (inactive) and the GI50 (M14) was > 100 µM (inactive). The GI50 (UACC-257) was > 100 µM (inactive), the GI50 (KM12) was > 100 µM (inactive) and the GI50 (K562) was > 100 µM (inactive). For the same compound, the GI50 (SF-268) was > 100 µM (inactive), the GI50 (HOP-62) was > 100 µM (inactive) and the GI50 (RPMI-8226) was > 100 µM (inactive). The GI50 (TK-10) was > 100 µM (inactive), the GI50 (SK-MEL-28) was > 100 µM (inactive) and the GI50 (HCT-15) was greater than 100 µM. For the same compound, the GI50 (CAKI-1) was > 100 µM (inactive), the GI50 (RXF 393) was 40.5 µM (inactive) and the GI50 (SN12C) was > 100 µM (inactive). The GI50 (EKVX) was > 100 µM (inactive).

`Cn1nc(-c2ccccc2)c(C(=O)/C=C/c2ccc(Cl)cc2)c(N2CCCCC2)c1=O` was tested, and the GI50 (SK-MEL-5) was 1.95 µM (inactive), the GI50 (NCI-H522) was 1.85 µM (inactive) and the GI50 (M14) was 3.15 µM (inactive). The GI50 (K562) was 2.04 µM (inactive), the GI50 (SF-268) was 2 µM (inactive) and the GI50 (COLO 205) was 2.23 µM (inactive). For the same compound, the GI50 (HOP-62) was 2.37 µM (inactive), the GI50 (RPMI-8226) was 2.05 µM (inactive) and the GI50 (TK-10) was 3.72 µM (inactive). The GI50 (SK-MEL-28) was 3.78 µM (inactive), the GI50 (HCT-15) was 2.98 µM and the GI50 (CAKI-1) was 0.826 µM (active). For the same compound, the GI50 (RXF 393) was 1.32 µM (inactive), the GI50 (SN12C) was 3.53 µM (inactive) and the GI50 (EKVX) was 3.85 µM (inactive).

In the case of `Cc1c(C(=O)/C=C/c2ccccc2Cl)[n+]([O-])c2ccccc2[n+]1[O-]`, the GI50 (SK-MEL-5) is reported as 18 µM (inactive), the GI50 (NCI-H226) is reported as 15.3 µM (inactive) and the GI50 (NCI-H522) is reported as 11.2 µM (inactive). The GI50 (M14) was 15.2 µM (inactive), the GI50 (UACC-257) was 13.4 µM (inactive) and the GI50 (KM12) was 14.3 µM (inactive). For the same compound, the GI50 (K562) was 5.53 µM (inactive), the GI50 (COLO 205) was 15.5 µM (inactive) and the GI50 (HOP-62) was 19.9 µM (inactive). The GI50 (RPMI-8226) was 11.9 µM (inactive), the GI50 (SK-MEL-28) was 16.6 µM (inactive) and the GI50 (HCT-15) was 10.1 µM. The GI50 (CAKI-1) was 3.24 µM (inactive), the GI50 (SN12C) was 15.1 µM (inactive) and the GI50 (EKVX) was 17.3 µM (inactive).

In the case of `Cc1ccc(/C=C2\CCCC\C2=N\O)cc1`, the GI50 (SK-MEL-5) is reported as 35.1 µM (inactive), the GI50 (M14) is reported as > 100 µM (inactive) and the GI50 (K562) is reported as 41 µM (inactive). The GI50 (SF-268) was 51.2 µM (inactive), the GI50 (COLO 205) was 81.5 µM (inactive) and the GI50 (HOP-62) was > 100 µM (inactive). For the same compound, the GI50 (TK-10) was > 100 µM (inactive), the GI50 (SK-MEL-28) was > 100 µM (inactive) and the GI50 (HCT-15) was 44.6 µM. For the same compound, the GI50 (CAKI-1) was 56.6 µM (inactive), the GI50 (SN12C) was 47 µM (inactive) and the GI50 (EKVX) was 80.2 µM (inactive).

`COc1cc2c(c(OC)c1OC)-c1ccc(SC)c(=O)cc1[C@@H](NC(=O)c1ccc(F)cc1)CC2` was tested, and the GI50 (NCI-H226) was 0.0381 µM (active), the GI50 (NCI-H522) was < 0.01 µM (active) and the GI50 (M14) was 0.0378 µM (active). For the same compound, the GI50 (UACC-257) was < 0.01 µM (active), the GI50 (KM12) was 0.0217 µM (active) and the GI50 (K562) was 0.0284 µM (active). For the same compound, the GI50 (SF-268) was 0.0455 µM (active), the GI50 (COLO 205) was 0.0206 µM (active) and the GI50 (HOP-62) was 0.0621 µM (active). The GI50 (RPMI-8226) was 0.0498 µM (active), the GI50 (TK-10) was 0.0515 µM (active) and the GI50 (SK-MEL-28) was 15.2 µM (inactive). For the same compound, the GI50 (SN12C) was 0.0384 µM (active) and the GI50 (EKVX) was 0.0461 µM (active).
